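Briefly, cells in 96-well plates were exposed to five compound concentrations for 48 h, and endpoints were estimated by linear interpolation. GI50: concentration for 50% inhibition of growth. TGI: total growth inhibition.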
Tests used:
Test in all cases: inhibition of tumour cell growth, NCI panel, 48 h
HL-60(TB) leukemia = system: HL-60(TB) leukemia
SF-268 CNS = system: SF-268 CNS
UO-31 renal = system: UO-31 renal
A498 renal = system: A498 renal
OVCAR-4 ovarian = system: OVCAR-4 ovarian
HT29 colon = system: HT29 colon
NCI-H460 lung = system: NCI-H460 lung
NCI-H522 lung = system: NCI-H522 lung
HCT-116 colon = system: HCT-116 colon
SR leukemia = system: SR leukemia

Compound | TGI (HL-60(TB) leukemia) [µM] | TGI (SF-268 CNS) [µM] | TGI (UO-31 renal) [µM] | TGI (A498 renal) [µM] | TGI (OVCAR-4 ovarian) [µM] | TGI (HT29 colon) [µM] | TGI (NCI-H460 lung) [µM] | TGI (NCI-H522 lung) [µM] | TGI (HCT-116 colon) [µM] | GI50 (HL-60(TB) leukemia) [µM] | GI50 (SF-268 CNS) [µM] | GI50 (UO-31 renal) [µM] | GI50 (OVCAR-4 ovarian) [µM] | GI50 (HCT-116 colon) [µM] | GI50 (NCI-H460 lung) [µM] | GI50 (NCI-H522 lung) [µM] | GI50 (SR leukemia) [µM] | TGI (SR leukemia) [µM] | GI50 (A498 renal) [µM] | GI50 (HT29 colon) [µM]
O=C(c1ccc([N+](=O)[O-])cc1[N+](=O)[O-])N(/N=C/C=C/c1ccccc1)c1nnc(-c2ccccc2)c(-c2ccccc2)n1 | 51.6 | > 100 | 50.6 | 95.2 | 76.6 | > 100 | > 100 | 96.6 |  |  |  |  |  |  |  |  |  |  |  | 
Cc1nc2c(N)ncnc2o1 | > 100 | > 100 | > 100 | > 100 | > 100 | > 100 | > 100 | > 100 | > 100 |  |  |  |  |  |  |  |  |  |  | 
O=c1[nH]c(=O)n(C2CC(O)C(CO)O2)cc1OS(=O)(=O)C(F)(F)F (stereo not given) | > 100 | > 100 |  | > 100 | > 100 | > 100 | > 100 | > 100 | > 100 |  |  |  |  |  |  |  |  |  |  | 
CC1=C(C(=O)Nc2ccccc2)C(c2ccc(Cl)c(Cl)c2)C(C(=O)Nc2ccccc2)=C(C)N1 |  | 24.9 | 26 | 33.4 | 27.7 | 24.6 | 31.2 | 25.8 | 22.3 |  |  |  |  |  |  |  |  |  |  | 
O=c1[nH]c(O)c(C=Nc2ccc(-c3nc4ccccc4o3)cc2)c(=O)[nH]1 | > 100 | > 100 | > 100 |  | > 100 |  | > 100 | > 100 | > 100 | 81.9 | > 100 | 82.4 | 33 | 93.6 | > 100 | 30.9 | 44.5 | > 100 |  | 
COC(=O)c1c2c(c(C)[n+]([O-])c1C)C(=O)C(NCc1ccc(Br)cc1)=CC2=O | 5.37 | 7.12 |  | 4.35 | 2 |  | > 100 |  | 3.77 | 2.31 | 2.21 |  | 0.704 | 1.23 | 1.86 |  |  |  | 1.62 | 
C=C(C)C(C1C=C(CCC(C=O)=C(C)C)C(=O)O1)C1(OC)C=C(C)C(=O)O1 (stereo not given) | > 100 |  | > 100 |  | > 100 | > 100 | 28.8 | > 100 | > 100 | > 100 |  | 97.1 | > 100 | 49.5 | 12.5 | > 100 |  |  |  | 57.9
CNCCCNc1ccnc2cc(Cl)ccc12 | 65 | 98.3 | 47.7 | 40.3 | 57.4 | 55.5 | 37.8 |  | 41.4 | 22.1 | 22.6 | 12.8 | 18.7 | 11.2 | 17.9 |  | 22.5 | 70.8 | 12.4 | 13.4
C=C(C)[C@@H]1CC[C@]2(CN)CC[C@]3(C)[C@H](CC[C@@H]4[C@@]5(C)CCCNC(C)(C)[C@@H]5CC[C@]43C)[C@@H]12 |  |  | 3.05 | 2.92 |  |  | 2.67 |  | 2.96 |  |  | 1.56 |  | 1.42 | 1.24 |  |  |  | 1.5 | 
O=[N+]([O-])c1cccnc1N=Nc1c(O)[nH]c2ccccc12 |  | > 100 | 81.2 | > 100 | 73 | 26 | 35.9 | 69.3 | 40 |  |  |  |  |  |  |  |  |  |  | 
Cc1cc(C)nc(NS(=O)(=O)c2ccc(Nc3c4ccccc4nc4c(C(=O)N5CCN(CCO)CC5)cccc34)cc2)n1 | > 100 | > 100 | > 100 | > 100 | > 100 | > 100 | > 100 |  | > 100 |  |  |  |  |  |  |  |  | > 100 |  | 
CCOC(=O)C(Br)=C1OC(=O)c2ccccc2-c2ccccc21 (mixture of isomers) | 35 | 88.3 | > 100 |  |  | 29.5 |  | 32 | 34 |  |  |  |  |  |  |  |  | 47.2 |  | 
COC(=O)c1c(C)cc(OC)c(C/C=C(\C)CCCc2coc(C=C(C)C)c2)c1OC | > 100 | > 100 | > 100 |  | > 100 | > 100 | > 100 | > 100 | > 100 |  |  |  |  |  |  |  |  | > 100 |  | 
c1ccc2c(c1)CCc1c(-c3ccncc3)n[nH]c1-2 | 88.8 | > 100 |  | 79.8 |  | > 100 | > 100 |  | 46.2 |  |  |  |  |  |  |  |  | 73.8 |  | 
CCOC(=O)c1c(C)c2c(n1Cc1ccccc1)CSCC2=O | 54.1 | > 100 | > 100 |  | > 100 | > 100 | 55.1 | 58.8 | 31.9 | 18.8 | 19.3 | 13.5 | 17.4 | 11.8 | 20.4 | 14.8 | 7.06 | > 100 |  | 18.7
COc1cc(C[P+](c2ccccc2)(c2ccccc2)c2ccccc2)cc(OC)c1OC | > 100 | > 100 | > 100 |  | > 100 | > 100 | > 100 | > 100 | > 100 |  |  |  |  |  |  |  |  | > 100 |  | 
CCCCCCCCCCCC[N+]12CC[N+](CCN)(CC1)CC2 | > 100 | > 100 | > 100 |  | > 100 | > 100 | > 100 | > 100 | > 100 |  |  |  |  |  |  |  |  | 81.7 |  | 
NNc1ncnc2nc[nH]c12 | 21.5 | > 100 | > 100 | > 100 | > 100 | > 100 | 51.6 | > 100 | 15.9 | 3.53 | 8.24 | 2.48 | 3.79 | 2.25 | 5.58 | 1.83 |  |  | 5.41 | 4.36
CC(C)C1CN(C(=O)OCc2ccccc2)C2N1C(=O)C2(C)OCc1ccccc1 (stereo not given) | 66.9 | > 100 | 68.8 | 95.8 | > 100 | > 100 | > 100 |  | > 100 |  |  |  |  |  |  |  |  | 98 |  | 
COc1cc(/C=C2\CCCCC3=C2N=C2SC(C)=CN2C3c2cc(OC)c(OC)c(OC)c2)cc(OC)c1OC (stereo not given) | > 100 | > 100 | > 100 |  | > 100 | > 100 | > 100 | > 100 | > 100 | 19.5 | 36.7 | 22.6 | 12.3 | 7.32 | 96.1 | 1.32 |  |  |  | > 100

Source: PubChem BioAssay (NCI)
